Measurements published in the NIST ThermoML archive (doi:10.1021/je100100n).

Experiment: xn = mol fraction of the nth substance listed
Conditions: 101 kPa, Liquid

CCO [ethanol] + CCOC(=O)CC(=O)OCC
x2 = 0
Conditions | mass density [kg/m3]
288.15 K | 794.044
298.15 K | 785.489
313.15 K | 772.42
328.15 K | 758.958

CO [methanol] + CCOC(=O)CC(=O)OCC
x2 = 0
Conditions | mass density [kg/m3]
288.15 K | 796.406
298.15 K | 786.987
313.15 K | 772.74
328.15 K | 758.201

CCCO [propan-1-ol] + CCOC(=O)CC(=O)OCC
x2 = 0
Conditions | mass density [kg/m3]
288.15 K | 809.009
298.15 K | 800.973
313.15 K | 788.687
328.15 K | 775.974

CC(C)O [propan-2-ol] + CCOC(=O)CC(=O)OCC
x2 = 0
Conditions | mass density [kg/m3]
288.15 K | 789.342
298.15 K | 780.99
313.15 K | 767.922
328.15 K | 754.001

CCCCO [butan-1-ol] + CCOC(=O)CC(=O)OCC
x2 = 0
Conditions | mass density [kg/m3]
288.15 K | 813.77
298.15 K | 806.137
313.15 K | 794.488
328.15 K | 782.477

CCOC(=O)CC(=O)OCC [diethyl 1,3-propanedioate] + CC(C)O
mass density [kg/m3]
Conditions | 288.15 K | 298.15 K | 313.15 K | 328.15 K
x1 = 0.1001 | 836.917 | 827.809 | 813.707 | 798.938
x1 = 0.2 | 877.015 | 867.404 | 852.617 | 837.294
x1 = 0.3 | 911.283 | 901.308 | 886.063 | 870.365
x1 = 0.3501 | 926.715 | 916.6 | 901.155 | 885.344
x1 = 0.4 | 940.924 | 930.696 | 915.119 | 899.194
x1 = 0.455 | 955.561 | 945.23 | 929.523 | 913.507
x1 = 0.4999 | 966.784 | 956.373 | 940.573 | 924.508
x1 = 0.5501 | 978.638 | 968.162 | 952.282 | 936.171
x1 = 0.5999 | 989.637 | 979.111 | 963.18 | 947.033
x1 = 0.6499 | 1000.13 | 989.567 | 973.566 | 957.417
x1 = 0.7001 | 1010.03 | 999.417 | 983.39 | 967.228
x1 = 0.8 | 1028.36 | 1017.69 | 1001.63 | 985.453
x1 = 0.8995 | 1044.94 | 1034.26 | 1018.18 | 1002.01
x1 = 1 | 1060.33 | 1049.6 | 1033.5 | 1017.34

CCOC(=O)CC(=O)OCC [diethyl 1,3-propanedioate] + CCCCO
mass density [kg/m3]
Conditions | 288.15 K | 298.15 K | 313.15 K | 328.15 K
x1 = 0.1001 | 850.611 | 842.336 | 829.747 | 816.824
x1 = 0.2002 | 883.667 | 874.886 | 861.524 | 847.882
x1 = 0.3001 | 913.38 | 904.169 | 890.202 | 875.956
x1 = 0.35 | 927.207 | 917.818 | 903.569 | 889.092
x1 = 0.4 | 940.225 | 930.667 | 916.189 | 901.465
x1 = 0.45 | 952.775 | 943.06 | 928.349 | 913.434
x1 = 0.5 | 964.641 | 954.786 | 939.89 | 924.793
x1 = 0.5501 | 976.114 | 966.141 | 951.051 | 935.788
x1 = 0.5999 | 986.952 | 976.853 | 961.602 | 946.182
x1 = 0.7 | 1007.44 | 997.139 | 981.612 | 965.954
x1 = 0.7998 | 1026.31 | 1015.86 | 1000.1 | 984.244
x1 = 0.9001 | 1043.95 | 1033.35 | 1017.41 | 1001.38
x1 = 1 | 1060.33 | 1049.6 | 1033.5 | 1017.34
